How the values were obtained:
Oryctolagus cuniculus [1] = test: Antiglaucoma activity in New Zealand rabbits assessed as inhibition of carbomer-induced ocular hypertension at 2 % in 50 uL administered into eye after 2 to 3 weeks of carbomer challenge (reference value: 35.3 +/- 1.2 mmHg); format: functional
Carbonic anhydrase 4 = Carbonic anhydrase 4 (Homo sapiens, UniProt P22748)
Description: Inhibition of human CA4 by CO2 hydration assay

Carbonic anhydrase 1 = Carbonic anhydrase 1 (Homo sapiens, UniProt P00915)
Description: Inhibition of human CA1 by CO2 hydration assay

Carbonic anhydrase 12 = Carbonic anhydrase 12 (Homo sapiens, UniProt O43570)
Description: Inhibition of human recombinant CA12 catalytic domain by CO2 hydration assay

Carbonic anhydrase 9 = Carbonic anhydrase 9 (Homo sapiens, UniProt Q16790)
Description: Inhibition of human recombinant CA9 catalytic domain by CO2 hydration assay

Carbonic anhydrase 2 = Carbonic anhydrase 2 (Homo sapiens, UniProt P00918)
Description: Inhibition of human CA2 by CO2 hydration assay

Oryctolagus cuniculus [2] = test: Antiglaucoma activity in New Zealand rabbits assessed as inhibition of carbomer-induced ocular hypertension at 2 % in 50 uL administered into eye after 2 to 3 weeks of carbomer challenge (reference value: 34.2 +/- 1.4 mmHg); format: functional
[3] = Solubility of the compound in water; format: physicochemical; conditions: buffer

Sequence of Carbonic anhydrase 1 (P00915 whole entry): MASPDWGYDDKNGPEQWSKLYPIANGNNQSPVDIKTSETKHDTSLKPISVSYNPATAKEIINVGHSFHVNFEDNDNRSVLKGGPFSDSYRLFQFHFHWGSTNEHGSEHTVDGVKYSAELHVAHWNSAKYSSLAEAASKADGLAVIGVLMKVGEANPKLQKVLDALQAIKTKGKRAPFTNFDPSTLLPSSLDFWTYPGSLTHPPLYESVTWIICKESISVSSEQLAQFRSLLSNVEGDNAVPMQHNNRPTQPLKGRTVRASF
Sequence of Carbonic anhydrase 4 (P22748 whole entry): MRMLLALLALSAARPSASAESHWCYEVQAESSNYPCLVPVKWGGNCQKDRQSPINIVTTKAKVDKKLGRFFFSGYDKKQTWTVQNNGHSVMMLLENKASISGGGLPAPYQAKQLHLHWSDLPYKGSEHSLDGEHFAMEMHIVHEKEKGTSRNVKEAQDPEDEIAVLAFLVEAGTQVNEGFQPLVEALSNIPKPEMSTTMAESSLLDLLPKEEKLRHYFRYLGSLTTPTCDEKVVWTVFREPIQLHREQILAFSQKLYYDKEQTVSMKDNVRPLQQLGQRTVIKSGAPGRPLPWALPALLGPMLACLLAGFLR
Sequence of Carbonic anhydrase 12 (O43570 whole entry): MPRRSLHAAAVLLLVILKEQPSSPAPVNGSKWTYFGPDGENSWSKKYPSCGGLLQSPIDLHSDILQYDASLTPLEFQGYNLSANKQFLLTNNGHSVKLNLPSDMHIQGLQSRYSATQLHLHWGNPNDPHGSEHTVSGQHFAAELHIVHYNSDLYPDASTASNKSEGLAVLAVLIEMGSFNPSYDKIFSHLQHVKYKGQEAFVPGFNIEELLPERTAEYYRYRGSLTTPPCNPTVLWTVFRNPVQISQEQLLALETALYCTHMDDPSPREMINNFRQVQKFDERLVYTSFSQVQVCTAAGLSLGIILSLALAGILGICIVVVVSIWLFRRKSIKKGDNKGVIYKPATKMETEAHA

Row | Structure (SMILES) | Activity (Oryctolagus cuniculus [1]) [mmHg] | Ki (Carbonic anhydrase 4) [nM] | Ki (Carbonic anhydrase 1) [nM] | Ki (Carbonic anhydrase 12) [nM] | Ki (Carbonic anhydrase 9) [nM] | Ki (Carbonic anhydrase 2) [nM] | Activity (Oryctolagus cuniculus [2]) [mmHg] | solubility [3] [%]
1 | O=[N+]([O-])O[C@@H]1CO[C@H]2[C@@H]1OC[C@@H]2O [ISOSORBIDE MONONITRATE] | 28.4 | – | – | – | – | – | – | –
2 | NS(=O)(=O)c1ccc(OCCCCCO[N+](=O)[O-])cc1 | – | 89 | 950 | 116 | 85 | 71 | – | –
3 | NS(=O)(=O)c1nnc(NS(=O)(=O)c2cccc(C(=O)OCCCCO[N+](=O)[O-])c2)s1 | – | 154 | 40 | 31 | 235 | – | – | –
4 | COc1cc(/C=C/C(=O)OCCCCO[N+](=O)[O-])ccc1OC(=O)c1cccc(S(=O)(=O)Nc2nnc(S(N)(=O)=O)s2)c1 | – | 225 | 137 | 42 | 177 | 33 | – | –
5 | CCN(CC)CCOC(=O)c1ccc(S(=O)(=O)Nc2nnc(S(N)(=O)=O)s2)cc1 | – | – | – | – | – | 1.4 | – | –
6 | NS(=O)(=O)c1nnc(NS(=O)(=O)c2ccc(C(=O)OCCCCO[N+](=O)[O-])cc2)s1 | – | 46 | 32 | 31 | 10 | 10 | – | –
7 | COc1cc(/C=C/C(=O)OCCCCO[N+](=O)[O-])ccc1OC(=O)c1ccc(S(=O)(=O)Nc2nnc(S(N)(=O)=O)s2)cc1 | – | 38 | 43 | 43 | 11 | 14 | – | –
8 | NS(=O)(=O)c1ccc(OCCCCO[N+](=O)[O-])cc1 | – | 76 | 41 | 29 | 25 | 12 | – | –
9 | COc1cc(/C=C/C(=O)OCCCCO[N+](=O)[O-])ccc1OC(=O)CCc1ccc(S(N)(=O)=O)cc1 | – | 139 | 395 | 87 | 93 | 101 | – | –
10 | NS(=O)(=O)c1ccc(OCCCO[N+](=O)[O-])cc1 | – | 148 | 587 | 83 | 83 | 88 | – | –
11 | NS(=O)(=O)c1ccc(C(=O)OCc2ccc(CO[N+](=O)[O-])cc2)cc1 | – | 345 | 242 | 147 | 253 | 198 | – | –
12 | NS(=O)(=O)c1ccc(C(=O)OCCCCO[N+](=O)[O-])cc1 | – | 44 | 189 | 30 | 165 | 18 | 20.6 | 2
13 | COc1cc(/C=C/C(=O)OCCCCO[N+](=O)[O-])ccc1OC(=O)c1ccc(S(N)(=O)=O)cc1 | – | 47 | 15 | 19 | 11 | 10 | – | > 0.3
